The EC50 is the concentration needed to bring the measured effect to its halfway point. The term IC50 denotes the point on the concentration scale where inhibition reaches its midpoint.

The record followed here is patent EP4650353A1 (Shanghai Institute of Materia Medica, Chinese Academy of …, priority 2023, dated 2024).

The target of one test is T1, human GLP-1 receptor (Homo sapiens, UniProt P43220).
T1 construct: HA (N); expressed in transfected cells
Put plainly: GLP-1 receptor-mediated agonist activity: cAMP level in hGLP-1R/HEK293 cell line (HTRF). The test is classed as cell-based. The following applies: cAMP levels in hGLP-1R/HEK293 cell line; Table 1; read-out: determined EC50. Background: Changes in cAMP serve as a functional read-out for many G protein-coupled receptors.

A further test has as its target hERG potassium channels (Homo sapiens, UniProt Q12809). Put plainly: cell-based. Here is the method: CHO cells expressing hERG protein were cultured in 175 cm^2 culture flasks. When the cell density grew to 60-80%, the culture medium was removed, the cells were washed once with 7 mL PBS, and then 3 mL Detachin was added for digestion. After digestion was complete, 7 mL of culture medium was added to neutralize, then centrifuged. The supernatant was aspirated, and 5 mL of culture medium was added to resuspend to ensure that the cell density is 2-5×10^6/mL.
Both the single-cell high-impedance sealing and whole-cell mode formation processes were automatically completed by the Qpatch instrument. After obtaining the whole-cell recording mode, the cell was clamped at -80 mV. Before a 5-second +20 mV depolarizing stimulus was given, a 50-ms -50 mV pre-voltage was given, and then the cell was repolarized to -50 mV for 5 seconds and then returned to -80 mV. This voltage stimulation was applied every 15 seconds. After recording for 2 minutes, the extracellular solution was recorded for 2 minutes. Then the drug administration process began. The compound concentration started from the lowest tested concentration. Each tested concentration was given for 2 minutes. […] At least three cells were tested for each concentration (n≥3).
The compound stock solution was diluted with extracellular fluid, 5 µL of 20 mM compound stock solution was added to 2495 µL extracellular fluid, diluted 500 times to 40 µM, and then serially diluted 3 times in extracellular fluid containing 0.2% DMSO (v/v) to obtain the final concentration to be tested.
The experimental data were analyzed by XLFit software.

Sequence of hERG potassium channels (Q12809 whole entry): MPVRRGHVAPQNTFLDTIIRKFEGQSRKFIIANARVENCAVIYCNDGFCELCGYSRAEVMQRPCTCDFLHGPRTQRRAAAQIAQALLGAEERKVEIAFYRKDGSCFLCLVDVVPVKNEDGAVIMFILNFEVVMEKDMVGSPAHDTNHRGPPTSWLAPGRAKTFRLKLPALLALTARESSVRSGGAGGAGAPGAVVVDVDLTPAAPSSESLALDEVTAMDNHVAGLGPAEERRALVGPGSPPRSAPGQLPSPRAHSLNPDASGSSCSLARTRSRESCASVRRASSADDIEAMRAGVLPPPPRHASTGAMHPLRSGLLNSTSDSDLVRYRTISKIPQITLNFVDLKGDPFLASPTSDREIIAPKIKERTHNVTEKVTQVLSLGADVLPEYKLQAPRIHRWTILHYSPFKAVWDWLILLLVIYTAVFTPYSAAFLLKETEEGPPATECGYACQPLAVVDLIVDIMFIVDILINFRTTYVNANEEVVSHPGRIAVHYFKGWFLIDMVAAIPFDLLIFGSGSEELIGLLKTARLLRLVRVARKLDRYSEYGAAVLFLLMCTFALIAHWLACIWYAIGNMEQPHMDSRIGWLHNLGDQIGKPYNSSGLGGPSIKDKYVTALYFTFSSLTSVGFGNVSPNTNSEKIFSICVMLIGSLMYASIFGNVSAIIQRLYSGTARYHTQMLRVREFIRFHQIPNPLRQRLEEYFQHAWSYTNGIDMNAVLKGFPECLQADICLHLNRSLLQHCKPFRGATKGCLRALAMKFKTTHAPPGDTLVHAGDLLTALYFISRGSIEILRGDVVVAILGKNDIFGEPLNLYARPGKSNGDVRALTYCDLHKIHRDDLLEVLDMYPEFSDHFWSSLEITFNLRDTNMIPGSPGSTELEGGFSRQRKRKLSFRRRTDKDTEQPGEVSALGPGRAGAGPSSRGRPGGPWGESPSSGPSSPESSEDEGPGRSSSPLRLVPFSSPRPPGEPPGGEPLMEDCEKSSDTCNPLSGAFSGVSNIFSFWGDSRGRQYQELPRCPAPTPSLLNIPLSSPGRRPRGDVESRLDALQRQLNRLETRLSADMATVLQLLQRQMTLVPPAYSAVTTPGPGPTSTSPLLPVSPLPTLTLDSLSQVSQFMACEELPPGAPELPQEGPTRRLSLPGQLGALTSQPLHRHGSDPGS
T1 sequence (P43220 24-463): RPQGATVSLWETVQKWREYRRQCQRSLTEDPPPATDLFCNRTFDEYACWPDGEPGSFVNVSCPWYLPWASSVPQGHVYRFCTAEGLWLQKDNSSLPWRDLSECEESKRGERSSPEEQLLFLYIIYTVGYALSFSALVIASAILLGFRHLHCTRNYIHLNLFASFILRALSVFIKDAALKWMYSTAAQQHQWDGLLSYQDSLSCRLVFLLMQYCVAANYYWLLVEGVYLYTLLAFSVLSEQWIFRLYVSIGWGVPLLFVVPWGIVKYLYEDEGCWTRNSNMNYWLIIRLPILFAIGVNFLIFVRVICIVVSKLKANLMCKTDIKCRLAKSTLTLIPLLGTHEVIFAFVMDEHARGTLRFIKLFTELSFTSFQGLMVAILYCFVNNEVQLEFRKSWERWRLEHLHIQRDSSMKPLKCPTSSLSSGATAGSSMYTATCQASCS

Turning to `[2H]C([2H])([2H])Oc1cc(C(=O)O)cc2c1nc(CN1CCC(c3cccc4c3OC(C)(c3ccc(Cl)cn3)O4)CC1)n2C[C@@H]1CCO1` (stereo partly drawn) [Compound 61, 2-((4-(2-(5-chloropyridin-2-yl)-2-methylbenzo[d][1,3]dioxol-4-yl)piperidin-1-yl)methyl)-4-(methoxy-d3)-1-(((S)-oxetan-2-yl)methyl)-1H-benzo[d]imidazole-6-carboxylic acid], on human GLP-1 receptor, the EC50 came out at 0.0103 nM. The IC50 against hERG potassium channels was over 40000 nM.

With `COc1cc(C(F)(F)F)ccc1COc1cccc(N2C=NN(Cc3nc4c(OC)cc(C(=O)O)cc4n3C[C@@H]3CCO3)CC2)n1` [Compound 23, (S)-4-methoxy-2-((4-(6-((2-methoxy-4-(trifluoromethyl)benzyl)oxy)pyridin-2-yl)-5,6-dihydro-1,2,4-triazin-1(4H)-yl)methyl)-1-(oxetan-2-ylmethyl)-1H-benzo[d]imidazole-6-carboxylic acid], the concentration giving a half-maximal response (EC50) on human GLP-1 receptor is 0.0015 nM. In addition, the IC50 on hERG potassium channels is over 40000 nM. On the same counts, the results for `CCOc1cc(C(=O)O)cc2c1nc(CN1CCN(c3cccc(OCc4ccc(C#N)cc4F)n3)C=N1)n2C[C@@H]1CCO1` [Compound 9, (S)-2-((4-(6-((4-cyano-2-fluorobenzyl)oxy)pyridin-2-yl)-5,6-dihydro-1,2,4-triazin-1(4H)-yl)methyl)-4-ethoxy-1-(oxetan-2-ylmethyl)-1H-benzo[d]imidazole-6-carboxylic acid] are 0.0012 nM and over 40000 nM. As to `[2H]C([2H])([2H])C([2H])([2H])Oc1cc(C(=O)O)cc2c1nc(CN1CCN(c3cccc4c3OC(C)(c3ccc(Cl)cc3F)O4)C=N1)n2C[C@@H]1CCO1` (stereo partly drawn) [Compound 76, 2-((4-(2-(4-chloro-2-fluorophenyl)-2-methylbenzo[d][1,3]dioxol-4-yl)-5,6-dihydro-1,2,4-triazin-1(4H)-yl)methyl)-4-(ethoxy-d5)-1-(((S)-oxetan-2-yl)methyl)-1H-benzo[d]imidazole-6-carboxylic acid], the EC50 at human GLP-1 receptor is 0.0045 nM. The molecule further yielded an IC50 on hERG potassium channels of over 40000 nM. With `COc1cc(C(=O)O)cc2c1nc(CN1CCN(c3cccc(OCc4ccc(Cl)cc4F)n3)C=N1)n2C[C@@H]1CCO1` [Compound 17, (S)-2-((4-(6-((4-chloro-2-fluorobenzyl)oxy)pyridin-2-yl)-5,6-dihydro-1,2,4-triazin-1(4H)-yl)methyl)-4-methoxy-1-(oxetan-2-ylmethyl)-1H-benzo[d]imidazole-6-carboxylic acid], the EC50 at human GLP-1 receptor stood at 0.0047 nM. The molecule also registered an IC50 on hERG potassium channels of over 40000 nM. With `[2H]C([2H])([2H])C([2H])([2H])Oc1cc(C(=O)O)cc2c1nc(CN1CCN(c3cccc4c3OC(C)(c3ccc(C(F)(F)F)cc3F)O4)C=N1)n2C[C@@H]1CCO1` (some centres unmarked) [Compound 82], at human GLP-1 receptor, the half-maximal effective concentration (EC50) was found to be 0.0131 nM. For the same molecule, the IC50 against hERG potassium channels was over 40000 nM. `[2H]C([2H])([2H])C([2H])([2H])Oc1cc(C(=O)O)cc2c1nc(CN1CCN(c3cccc4c3OC(C)(c3ccc(Cl)cn3)O4)C=N1)n2C[C@@H]1CCO1` (stereo partly drawn) [Compound 73, 2-((4-(2-(5-chloropyridin-2-yl)-2-methylbenzo[d][1,3]dioxol-4-yl)-5,6-dihydro-1,2,4-triazin-1(4H)-yl)methyl)-4-(ethoxy-d5)-1-(((S)-oxetan-2-yl)methyl)-1H-benzo[d]imidazole-6-carboxylic acid]: at human GLP-1 receptor, the EC50 was found to be 0.0084 nM. For the same molecule, the IC50 against hERG potassium channels was over 40000 nM. Regarding “4-methoxy-2-((4-(2-(2-methoxy-4-(trifluoromethyl)phenyl)-2-methylbenzo[d][1,3]dioxol-4-yl)piperidin-1-yl)methyl)-1-((S)-oxetan-2-yl)methyl]-1H-benzo[d]imidazole-6-carboxylic acid [Compound 59]”, the EC50 on human GLP-1 receptor stood at 0.0031 nM. `COc1cc(C(=O)O)cc2c1nc(CN1CCN(c3cccc4c3OC(C)(c3ccc(Cl)cc3F)O4)C=N1)n2C[C@@H]1CCO1` (stereo partly drawn) [Compound 63, 2-((4-(2-(4-chloro-2-fluorophenyl)-2-methylbenzo[d][1,3]dioxol-4-yl)-5,6-dihydro-1,2,4-triazin-1(4H)-yl)methyl)-4-methoxy-1-(((S)-oxetan-2-yl)methyl)-1H-benzo[d]imidazole-6-carboxylic acid]: the EC50 on human GLP-1 receptor is 0.0152 nM. Moreover, on hERG potassium channels, the IC50 was over 40000 nM. Take `[2H]C([2H])([2H])C([2H])([2H])Oc1cc(C(=O)O)cc2c1nc(CN1CCN(c3cccc4c3OC(C)(c3ccc(F)cc3F)O4)C=N1)n2C[C@@H]1CCO1` (stereo partly drawn) [Compound 87, 2-((4-(2-(2,4-difluorophenyl)-2-methylbenzo[d][1,3]dioxol-4-yl)-5,6-dihydro-1,2,4-triazin-1(4H)-yl)methyl)-4-(ethoxy-d5)-1-(((S)-oxetan-2-yl)methyl)-1H-benzo[d]imidazole-6-carboxylic acid]: on human GLP-1 receptor, the EC50 is 0.0212 nM. With `COc1cc(C(=O)O)cc2c1nc(CN1CCC(c3ccccc3OCc3ccc(C#N)cc3F)CC1)n2C[C@@H]1CCO1` [Compound 47, (S)-2-((4-(2-((4-cyano-2-fluorobenzyl)oxy)phenyl)piperidin-1-yl)methyl)-4-methoxy-1-(oxetan-2-ylmethyl)-1H-benzo[d]imidazole-6-carboxylic acid], the EC50 on human GLP-1 receptor was 0.0613 nM. In the case of `COc1cc(C(=O)O)cc2c1nc(CN1CCN(c3cccc4c3OC(C)(c3ccc(Cl)cc3F)O4)CC1)n2C[C@@H]1CCO1` (stereo partly drawn) [Compound 40, 2-((4-(2-(4-chloro-2-fluorophenyl)-2-methylbenzo[d][1,3]dioxol-4-yl)piperazin-1-yl)methyl)-4-methoxy-1-(((S)-oxetan-2-yl)methyl)-1H-benzo[d]imidazole-6-carboxylic acid], the EC50 on human GLP-1 receptor worked out at 0.0111 nM. Take `[2H]C([2H])([2H])Oc1cc(C(=O)O)cc2c1nc(CN1CCC(c3cccc4c3OC(C)(c3ccc(C(F)(F)F)cn3)O4)CC1)n2C[C@@H]1CCO1` (stereo partly drawn) [Compound 67, 4-(methoxy-d3)-2-((4-(2-methyl-2-(5-(trifluoromethyl)pyridin-2-yl)benzo[d][1,3]dioxol-4-yl)piperidin-1-yl)methyl)-1-(((S)-oxetan-2-yl)methyl)-1H-benzo[d]imidazole-6-carboxylic acid]: on human GLP-1 receptor, the EC50 stood at 0.0141 nM. At hERG potassium channels, the IC50 is over 40000 nM.

In the case of `[2H]C([2H])([2H])C([2H])([2H])Oc1cc(C(=O)O)cc2c1nc(CN1CCC(c3cccc4c3OC(C)(c3ccc(Cl)cn3)O4)CC1)n2C[C@@H]1CCO1` (stereo partly drawn) [Compound 72, 2-((4-(2-(5-chloropyridin-2-yl)-2-methylbenzo[d][1,3]dioxol-4-yl)piperidin-1-yl)methyl)-4-(ethoxy-d5)-1-(((S)-oxetan-2-yl)methyl)-1H-benzo[d]imidazole-6-carboxylic acid], the EC50 on human GLP-1 receptor came to 0.01 nM. For the molecule `COc1cc(C(=O)O)cc2c1nc(CN1CCC(c3ccccc3OCc3ccc(Cl)cc3F)CC1)n2C[C@@H]1CCO1` [Compound 48, (S)-2-((4-(2-((4-chloro-2-fluorobenzyl)oxy)phenyl)piperidin-1-yl)methyl)-4-methoxy-1-(oxetan-2-ylmethyl)-1H-benzo[d]imidazole-6-carboxylic acid], the EC50 at human GLP-1 receptor came to 0.0434 nM. The same measure, in the same setting: with `[2H]C([2H])([2H])C([2H])([2H])Oc1cc(C(=O)O)cc2c1nc(CN1CCC(c3cccc4c3OC(C)(c3ccc(Cl)cc3F)O4)CC1)n2C[C@@H]1CCO1` (stereo partly drawn) [Compound 75, 2-((4-(2-(4-chloro-2-fluorophenyl)-2-methylbenzo[d][1,3]dioxol-4-yl)piperidin-1-yl)methyl)-4-(ethoxy-d5)-1-(((S)-oxetan-2-yl)methyl)-1H-benzo[d]imidazole-6-carboxylic acid] the figure was 0.003 nM; with `CCOc1cc(C(=O)O)cc2c1nc(CN1CCC(c3cccc(OCc4ccc(C#N)cc4F)n3)CC1)n2C[C@@H]1CCO1` [Compound 2, (S)-2-((4-(6-((4-cyano-2-fluorobenzyl)oxy)pyridin-2-yl)piperidin-1-yl)methyl)-4-ethoxy-1-(oxetan-2-ylmethyl)-1H-benzo[d]imidazole-6-carboxylic acid], 0.0011 nM; with `CCOc1cc(C(=O)O)cc2c1nc(CN1CCN(c3cccc4c3OC(C)(c3ccc(F)cc3F)O4)C=N1)n2C[C@@H]1CCO1` (stereo partly drawn) [Compound 86, 2-((4-(2-(2,4-difluorophenyl)-2-methylbenzo[d][1,3]dioxol-4-yl)-5,6-dihydro-1,2,4-triazin-1(4H)-yl)methyl)-4-ethoxy-1-(((S)-oxetan-2-yl)methyl)-1H-benzo[d]imidazole-6-carboxylic acid], 0.0289 nM. As for `COc1cc(C(=O)O)cc2c1nc(CN1CCC(c3cccc4c3OC(C)(c3ccc(C(F)(F)F)cc3F)O4)CC1)n2C[C@@H]1CCO1` (stereo partly drawn) [Compound 53, 2-((4-(2-(2-fluoro-4-(trifluoromethyl)phenyl)-2-methylbenzo[d][1,3]dioxol-4-yl)piperidin-1-yl)methyl)-4-methoxy-1-(((S)-oxetan-2-yl)methyl)-1H-benzo[d]imidazole-6-carboxylic acid], the half-maximal effective concentration (EC50) on human GLP-1 receptor turned out to be 0.0093 nM. On to `[2H]C([2H])([2H])Oc1cc(C(=O)O)cc2c1nc(CN1CCN(c3cccc(OCc4ccc(Cl)cc4F)n3)C=N1)n2C[C@@H]1CCO1` [Compound 26, (S)-2-((4-(6-((4-chloro-2-fluorobenzyl)oxy)pyridin-2-yl)-5,6-dihydro-1,2,4-triazin-1(4H)-yl)methyl)-4-(methoxy-d3)-1-(oxetan-2-ylmethyl)-1H-benzo[d]imidazole-6-carboxylic acid], for which the concentration giving a half-maximal response (EC50) on human GLP-1 receptor is 0.0093 nM.
